Experimental data reported in the supplement of paper PMC10307832.

Experiments:
Test in all cases: relative viability (nuclei count vs DMSO), 5 days (fraction); higher = more cells survive
[1] = compound: CCn1c(-c2nonc2N)nc2c(C#CC(C)(C)O)ncc(OC[C@H]3CCCNC3)c21 + Cc1cc(Nc2cc(N3CCN(C)CC3)nc(Sc3ccc(NC(=O)C4CC4)cc3)n2)n[nH]1 [Tozasertib] (partner 0.1 µM)
In short: (§1)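 The day after seeding in 1536-well plates, lung cancer cell lines were treated by pin tool with a single drug, or with a fixed anchor-drug dose together with five library-drug doses (not always all listed) in √10 steps. After 5 days, a combined fix-and-stain solution (final 0.05% Triton X-100, 1% formaldehyde, 1 ug/ml Hoechst) was added. Nuclei counted on 4× images gave relative viability as treated counts over vehicle counts, reported as the median of duplicate plates.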

BAM7 + Navitoclax = compound: CCOC1=CC=CC=C1N=NC2=C(NN(C2=O)C3=NC(=CS3)C4=CC=CC=C4)C [BAM7] + CC1(C)CCC(c2ccc(Cl)cc2)=C(CN2CCN(c3ccc(C(=O)NS(=O)(=O)c4ccc(N[C@H](CCN5CCOCC5)CSc5ccccc5)c(S(=O)(=O)C(F)(F)F)c4)cc3)CC2)C1 [Navitoclax] (partner 0.5 µM)
In short: as §1

BAM7 + Dasatinib = compound: CCOC1=CC=CC=C1N=NC2=C(NN(C2=O)C3=NC(=CS3)C4=CC=CC=C4)C [BAM7] + Cc1nc(Nc2ncc(C(=O)Nc3c(C)cccc3Cl)s2)cc(N2CCN(CCO)CC2)n1 [Dasatinib] (partner 0.075 µM)
In short: as §1

[2] = compound: CCn1c(-c2nonc2N)nc2c(C#CC(C)(C)O)ncc(OC[C@H]3CCCNC3)c21 + Nc1nc2[nH]cc(CCc3ccc(C(=O)N[C@@H](CCC(=O)O)C(=O)O)cc3)c2c(=O)[nH]1 [Pemetrexed] (partner 0.2 µM)
In short: as §1

| Cell Line | relative viability ([1]; first compound 0.01 µM) | relative viability ([1]; first compound 0.03162 µM) | relative viability ([1]; first compound 0.1 µM) | relative viability ([1]; first compound 0.3162 µM) | relative viability ([1]; first compound 1 µM) | relative viability (BAM7 + Navitoclax; first compound 0.5 µM) | relative viability (BAM7 + Navitoclax; first compound 5 µM) | relative viability (BAM7 + Navitoclax; first compound 15.81 µM) | relative viability (BAM7 + Navitoclax; first compound 50 µM) | relative viability (BAM7 + Dasatinib; first compound 0.5 µM) | relative viability (BAM7 + Dasatinib; first compound 5 µM) | relative viability (BAM7 + Dasatinib; first compound 15.81 µM) | relative viability (BAM7 + Dasatinib; first compound 50 µM) | relative viability ([2]; first compound 0.01 µM) | relative viability ([2]; first compound 0.03162 µM) | relative viability ([2]; first compound 0.1 µM) | relative viability ([2]; first compound 0.3162 µM) | relative viability ([2]; first compound 1 µM) |
| --- | --- | --- | --- | --- | --- | --- | --- | --- | --- | --- | --- | --- | --- | --- | --- | --- | --- | --- |
| NCI-H1944 | 0.287 | 0.247 | 0.266 | 0.236 | 0.249 | 1.07 | 1.14 | 0.875 | 0.882 | 0.217 | 0.234 | 0.225 | 0.279 | 0.618 | 0.622 | 0.657 | 0.565 | 0.631 |
| NCI-H1975 | 0.768 | 0.715 | 0.757 | 0.777 | 0.658 | 0.9 | 1.1 | – | 0.862 | 0.309 | 0.341 | 0.3 | 0.296 | 0.278 | 0.323 | 0.29 | 0.279 | 0.295 |
| NCI-H1993 | 0.585 | 0.591 | 0.549 | 0.609 | 0.574 | 0.819 | 0.899 | 0.739 | 0.813 | 0.492 | 0.541 | 0.502 | 0.575 | 0.642 | 0.509 | 0.516 | 0.553 | 0.519 |
| NCI-H2009 | 0.72 | 0.811 | 0.724 | 0.668 | 0.771 | 1.25 | 1.17 | 1.15 | 1.17 | 0.291 | 0.283 | 0.265 | 0.275 | 1.08 | 1.09 | 1.06 | 1.14 | 1.06 |
| NCI-H2023 | 0.339 | 0.379 | 0.341 | 0.305 | 0.343 | 1.04 | 0.888 | 0.886 | 0.982 | 0.519 | 0.465 | 0.393 | 0.481 | 0.211 | 0.26 | 0.211 | 0.176 | 0.178 |
| NCI-H2085 | 0.81 | 0.771 | 0.811 | 0.822 | 0.729 | 1.13 | 1.24 | 1.02 | 1.21 | 0.237 | 0.211 | 0.229 | 0.217 | 0.934 | 0.88 | 0.914 | 0.873 | 0.992 |
| NCI-H2087 | 0.264 | 0.258 | 0.248 | 0.259 | 0.303 | 0.92 | 1.13 | 0.942 | 1.02 | 0.939 | 0.991 | 0.765 | 0.844 | 0.614 | – | 0.646 | 0.615 | 0.613 |
| NCI-H2126 | 0.829 | 0.885 | 0.806 | 0.817 | 0.863 | 0.841 | 0.857 | 0.86 | 0.849 | 0.584 | 0.484 | 0.436 | 0.526 | 0.706 | 0.692 | 0.684 | 0.731 | 0.669 |
| NCI-H2170 | 0.769 | 0.755 | 0.778 | 0.705 | 0.733 | 0.559 | 0.581 | 0.479 | 0.598 | 0.644 | 0.683 | 0.731 | 0.777 | 0.278 | 0.286 | 0.266 | 0.271 | 0.234 |
| NCI-H2228 | 0.222 | 0.278 | 0.229 | 0.246 | 0.252 | 0.985 | 1.4 | 0.818 | 1.27 | 0.598 | 0.639 | 0.509 | 0.521 | 0.336 | 0.302 | 0.328 | 0.339 | 0.318 |
| NCI-H2347 | 0.6 | 0.59 | – | 0.613 | 0.583 | 0.765 | 0.918 | 0.806 | 0.861 | 0.303 | 0.345 | – | 0.339 | 0.46 | 0.399 | 0.385 | 0.432 | 0.39 |
| NCI-H2405 | 0.768 | 0.806 | 0.692 | 0.71 | 0.706 | 0.946 | 1.11 | 0.747 | 1 | 0.195 | 0.201 | 0.211 | 0.243 | 1.03 | 1.12 | 0.964 | 0.96 | 1.13 |
| NCI-H3122 | 0.369 | 0.405 | 0.396 | 0.369 | 0.337 | 1.07 | 0.984 | 1.06 | 1.07 | 0.438 | 0.835 | 0.838 | 0.725 | 0.206 | 0.208 | 0.201 | 0.195 | 0.2 |
| PC-3 [JPC-3] | 0.847 | 0.943 | 0.833 | 0.827 | 0.859 | 0.688 | 0.815 | 0.755 | 0.626 | 1.04 | 0.91 | 1.02 | 0.946 | 1.01 | – | 1.03 | 0.946 | 1.17 |
| PC-14 | 0.587 | 0.63 | 0.687 | 0.533 | 0.716 | 1.05 | 1.09 | 1 | 0.938 | 0.229 | 0.211 | 0.228 | 0.295 | 0.127 | 0.126 | 0.14 | 0.136 | 0.147 |
| RERF-LC-KJ | 0.441 | 0.516 | 0.403 | 0.477 | 0.416 | 0.908 | 0.805 | 0.907 | 0.847 | 0.639 | 0.539 | 0.323 | 0.358 | 0.486 | 0.442 | 0.432 | 0.478 | 0.488 |
| SK-LU-1 | 0.335 | 0.387 | 0.349 | 0.306 | 0.344 | 0.487 | 1.01 | 0.8 | 0.827 | 0.172 | 0.18 | 0.191 | 0.168 | 0.869 | 0.985 | 0.823 | 0.929 | 0.855 |
| SK-MES-1 | 0.858 | 0.835 | 0.894 | 0.854 | 0.856 | 1.37 | 1.36 | 1.23 | 1.23 | 0.366 | 0.289 | 0.3 | 0.336 | 0.971 | 0.945 | 0.947 | 0.909 | 0.983 |
